Assay results taken from US20050019746A1, “Apoptosis-related kinase/GPCRs” (EiRx Therapeutics Limited, priority 2003, published 2005).

How the values were obtained:
Type in all cases: cell-based, human
DU145 cells = assay: 10-14 day Clonagenicity Assay (MTT), DU145; conditions: for percentage survival relative to the missense, n = 2: independent experiment n = 2, dilution point of maximum toxicity; for percentage survival relative to the missense, n = 3: independent experiment n = 3, dilution point of maximum toxicity; for percentage survival relative to the missense, n = 1: independent experiment n = 1, dilution point of maximum toxicity
How it was run: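 Read-out is MTT conversion 10-14 days after siRNA transfection, expressed as average percentage viability relative to missense oligomer at the seed density of maximum toxicity. Oligomers were applied at 2 μg/ml for 4 hours to cells plated over six 1-in-2 dilutions. Cytotoxicity required reduced viability at two or more seed densities.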

SKOV3 cells = assay: 10-14 day Clonagenicity Assay (MTT), SKOV3; conditions: for percentage survival relative to the missense, n = 1: independent experiment n = 1, dilution point of maximum toxicity; for percentage survival relative to the missense, n = 2: independent experiment n = 2, dilution point of maximum toxicity; for percentage survival relative to the missense, n = 3: independent experiment n = 3, dilution point of maximum toxicity
How it was run: (§1)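 Extended-growth viability screen: siRNA transfected at 2 μg/ml into six serially diluted seed densities, quantified by MTT at 10-14 days. Hits needed significant loss versus missense (non-overlapping standard error bars) across two densities; maximum-toxicity point reported as mean % viability.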

A498 cells = assay: 10-14 day Clonagenicity Assay (MTT), A498; conditions: for percentage survival relative to the missense, n = 1: independent experiment n = 1, dilution point of maximum toxicity; for percentage survival relative to the missense, n = 3: independent experiment n = 3, dilution point of maximum toxicity
How it was run: as §1

PC3 cells = assay: Cell Migration Assay (Chemicon ECM550, Boyden Chamber); conditions: 48 hours post siRNA transfection, 24-hour migration, compared to missense and UPA controls
How it was run: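 PC3 cells transfected with siRNA (2 μg/ml, 4 h), then assayed 48 h post-transfection in a Boyden chamber migrating toward chemoattractant over 24 h; migration tracked by fluorescent dye, higher fluorescence indicating more migration; compared with missense control and UPA knockdown.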

siRNA EKI: siRNA duplex, sense GCACUGGAUCCAAAGCAUGtt, antisense CAUGCUUUGGAUCCAGUGCtt; same in Tables 9 and 11 (sense GCACUGGAUCCAAAGCAUGTT; antisense CAUGCUUUGGAUCCAGUGCTT; chemistry not given here)
percentage survival relative to the missense, n = 2 (DU145 cells): 62.2% | percentage survival relative to the missense, n = 1 (SKOV3 cells): 10.5% | percentage survival relative to the missense, n = 2 (SKOV3 cells): 19.8% | percentage survival relative to the missense, n = 3 (SKOV3 cells): 20.6% | percentage survival relative to the missense, n = 1 (A498 cells): 21.6% | percentage survival relative to the missense, n = 3 (A498 cells): 15.4%

siRNA FLT4: sense GUACGGCAACCUCUCCAACtt, antisense GUUGGAGAGGUUGCCGUACtt (sense GUACGGCAACCUCUCCAACTT; antisense GUUGGAGAGGUUGCCGUACTT; chemistry not given here)
percentage survival relative to the missense, n = 2 (DU145 cells): 52.7% | percentage survival relative to the missense, n = 3 (DU145 cells): 32.6% | percentage survival relative to the missense, n = 2 (SKOV3 cells): 61% | percentage survival relative to the missense, n = 3 (SKOV3 cells): 56.5% | migration of PC3 cells (PC3 cells): inhibition of migration | percentage survival relative to the missense, n = 3 (A498 cells): 10%

siRNA GRAF: siRNA duplex, sense GCGGAAGUUUGCAGAUUCCtt, antisense GGAAUCUGCAAACUUCCGCtt; same in Tables 9 and 11 (sense GCGGAAGUUUGCAGAUUCCTT; antisense GGAAUCUGCAAACUUCCGCTT; chemistry not given here)
percentage survival relative to the missense, n = 1 (SKOV3 cells): 82.2% | percentage survival relative to the missense, n = 1 (A498 cells): 92.6% | percentage survival relative to the missense, n = 3 (A498 cells): 49.9%

siRNA MAK: sense GAAGCCAAGCAUGGGUGUUtt, antisense AACACCCAUGCUUGGCUUCtt (sense GAAGCCAAGCAUGGGUGUUTT; antisense AACACCCAUGCUUGGCUUCTT; chemistry not given here)
percentage survival relative to the missense, n = 2 (DU145 cells): 57.2% | percentage survival relative to the missense, n = 3 (DU145 cells): 55.4% | percentage survival relative to the missense, n = 1 (SKOV3 cells): 25.6% | percentage survival relative to the missense, n = 2 (SKOV3 cells): 40.3% | migration of PC3 cells (PC3 cells): increases the ability of cancer cells to migrate | percentage survival relative to the missense, n = 1 (A498 cells): 19.4% | percentage survival relative to the missense, n = 3 (A498 cells): 51.6%

siRNA MAPKK5: sense GAGGACAGGUUAAGCUGUGtt, antisense CACAGCUUAACCUGUCCUCtt (sense GAGGACAGGUUAAGCUGUGTT; antisense CACAGCUUAACCUGUCCUCTT; chemistry not given here)
percentage survival relative to the missense, n = 3 (DU145 cells): 13.6% | percentage survival relative to the missense, n = 1 (SKOV3 cells): 18.5% | percentage survival relative to the missense, n = 3 (SKOV3 cells): 53.7% | migration of PC3 cells (PC3 cells): no influence on the migration | percentage survival relative to the missense, n = 1 (A498 cells): 10.2% | percentage survival relative to the missense, n = 3 (A498 cells): 6.9%

siRNA MKNK: sense UACAUGGCCCCUGAGGUAGtt, antisense CUACCUCAGGGGCCAUGUAtt (sense UACAUGGCCCCUGAGGUAGTT; antisense CUACCUCAGGGGCCAUGUATT; chemistry not given here)
percentage survival relative to the missense, n = 3 (DU145 cells): 33.9% | percentage survival relative to the missense, n = 1 (SKOV3 cells): 14% | percentage survival relative to the missense, n = 3 (SKOV3 cells): 34.3% | migration of PC3 cells (PC3 cells): inhibition of migration | percentage survival relative to the missense, n = 1 (A498 cells): 15.4% | percentage survival relative to the missense, n = 3 (A498 cells): 2.7%

siRNA MPSK1: sense GGGUUAUGCCCACAGAGACtt, antisense GUCUCUGUGGGCAUAACCCtt (sense GGGUUAUGCCCACAGAGACTT; antisense GUCUCUGUGGGCAUAACCCTT; chemistry not given here)
percentage survival relative to the missense, n = 1 (SKOV3 cells): 57.2% | migration of PC3 cells (PC3 cells): inhibition of migration | percentage survival relative to the missense, n = 1 (A498 cells): 44.7% | percentage survival relative to the missense, n = 3 (A498 cells): 20.9%

siRNA NTKL: siRNA duplex, sense UGUGGAGCUGAUGAAGCACtt, antisense GUGCUUCAUCAGCUCCACAtt; same in Tables 9 and 11 (sense UGUGGAGCUGAUGAAGCACTT; antisense GUGCUUCAUCAGCUCCACATT; chemistry not given here)
percentage survival relative to the missense, n = 1 (DU145 cells): 27.8% | percentage survival relative to the missense, n = 2 (DU145 cells): 35.1% | percentage survival relative to the missense, n = 3 (DU145 cells): 25.4% | percentage survival relative to the missense, n = 1 (SKOV3 cells): 6.2% | percentage survival relative to the missense, n = 2 (SKOV3 cells): 18.8% | percentage survival relative to the missense, n = 3 (SKOV3 cells): 14.9% | percentage survival relative to the missense, n = 1 (A498 cells): 12.3% | percentage survival relative to the missense, n = 3 (A498 cells): 7.2%

siRNA P14KB: sense GCUACGGAAGCUGAUCCUCtt, antisense GAGGAUCAGCUUCCGUAGCtt (sense GCUACGGAAGCUGAUCCUCTT; antisense GAGGAUCAGCUUCCGUAGCTT; chemistry not given here)
percentage survival relative to the missense, n = 3 (DU145 cells): 26.1% | percentage survival relative to the missense, n = 1 (SKOV3 cells): 12.3% | percentage survival relative to the missense, n = 2 (SKOV3 cells): 56% | percentage survival relative to the missense, n = 3 (SKOV3 cells): 44.8% | migration of PC3 cells (PC3 cells): no influence on the migration | percentage survival relative to the missense, n = 1 (A498 cells): 19.3% | percentage survival relative to the missense, n = 3 (A498 cells): 15.1%

siRNA PCTAIRE: sense GUCAGUGCCCACAAAGACUtt, antisense AGUCUUUGUGGGCACUGACtt (sense GUCAGUGCCCACAAAGACUTT; antisense AGUCUUUGUGGGCACUGACTT; chemistry not given here)
percentage survival relative to the missense, n = 1 (SKOV3 cells): 68.6% | migration of PC3 cells (PC3 cells): inhibition of migration | percentage survival relative to the missense, n = 1 (A498 cells): 24.9% | percentage survival relative to the missense, n = 3 (A498 cells): 48.4%

siRNA PSKH1: sense GAACCUGCACCGCUCCAUAtt, antisense UAUGGAGCGGUGCAGGUUCtt (sense GAACCUGCACCGCUCCAUATT; antisense UAUGGAGCGGUGCAGGUUCTT; chemistry not given here)
percentage survival relative to the missense, n = 1 (SKOV3 cells): 48% | migration of PC3 cells (PC3 cells): increases the ability of cancer cells to migrate | percentage survival relative to the missense, n = 1 (A498 cells): 54.8% | percentage survival relative to the missense, n = 3 (A498 cells): 10%

siRNA ROCK: siRNA duplex, sense UACAUGCCUGGUGGAGAUCtt, antisense GAUCUCCACCAGGCAUGUAtt; same in Tables 9 and 11 (sense UACAUGCCUGGUGGAGAUCTT; antisense GAUCUCCACCAGGCAUGUATT; chemistry not given here)
percentage survival relative to the missense, n = 1 (DU145 cells): 45.6% | percentage survival relative to the missense, n = 2 (DU145 cells): 44.4% | percentage survival relative to the missense, n = 1 (SKOV3 cells): 11.7% | percentage survival relative to the missense, n = 2 (SKOV3 cells): 30.4% | percentage survival relative to the missense, n = 3 (SKOV3 cells): 40.7% | percentage survival relative to the missense, n = 1 (A498 cells): 14.3% | percentage survival relative to the missense, n = 3 (A498 cells): 8.3%

siRNA Survivin: positive control siRNA, sense GAACUGGCCCUUCUUGGAGtt, antisense CUCCAAGAAGGGCCAGUUCtt (sense GAACUGGCCCUUCUUGGAGTT; antisense CUCCAAGAAGGGCCAGUUCTT; chemistry not given here) [reference compound]
percentage survival relative to the missense, n = 1 (DU145 cells): 102% | percentage survival relative to the missense, n = 2 (DU145 cells): 61.8% | percentage survival relative to the missense, n = 3 (DU145 cells): 91% | percentage survival relative to the missense, n = 1 (SKOV3 cells): 43.9% | percentage survival relative to the missense, n = 2 (SKOV3 cells): 90.8% | percentage survival relative to the missense, n = 3 (SKOV3 cells): 85.7% | percentage survival relative to the missense, n = 1 (A498 cells): 35.9% | percentage survival relative to the missense, n = 3 (A498 cells): 75.9%
